Results published in ChEMBL document CHEMBL1255322, “In vivo therapeutic effect of gatifloxacin on BALB/c mice infected with Nocardia brasiliensis” (Antimicrob Agents Chemother, 2008).
Values after ≈ are worked out from the molar mass of the structure shown. Active and inactive are the calls of the source. No cut-off for these calls is given here.

Experiments:
Nocardia brasiliensis [1] = assay: Antimicrobial activity against Nocardia brasiliensis HUJEG-1 by broth macrodilution method; type: functional
[2] = Cmax in BALB/c mouse serum at 100 mg/kg, sc TID for 4 weeks by HPLC method; type: ADME, organism-based; set-up: dose 100 mg/kg, route subcutaneous
Nocardia brasiliensis [3] = assay: Antimicrobial activity against Nocardia brasiliensis HUJEG-1 infected in BALB/c mouse assessed as decrease in number of lesions on foot-pad at 100 mg/kg, sc TID for 4 weeks; type: functional, organism-based; set-up: dose 100 mg/kg
Nocardia brasiliensis [4] = assay: Antimicrobial activity against Nocardia brasiliensis HUJEG-1 infected in BALB/c mouse assessed as decrease in number of lesions on foot-pad at 25 mg/kg, sc TID for 4 weeks; type: functional, organism-based; set-up: dose 25 mg/kg
[5] = Cmax in BALB/c mouse serum at 25 mg/kg, sc TID for 4 weeks by HPLC method; type: ADME, organism-based; set-up: dose 25 mg/kg, route subcutaneous

SMILES	Activity (Nocardia brasiliensis [1])	MIC (Nocardia brasiliensis [1]) [µg/mL]	further results
COc1c(N2C[C@@H]3CCCN[C@@H]3C2)c(F)cc2c(=O)c(C(=O)O)cn(C3CC3)c12	Active		
C[C@H]1NCc2cc(-c3ccc4c(=O)c(C(=O)O)cn(C5CC5)c4c3OC(F)F)ccc21	Active		
COc1c(N2CCNC(C)C2)c(F)cc2c(=O)c(C(=O)O)cn(C3CC3)c12 (stereo not drawn) [GATIFLOXACIN]		0.25 (≈ 0.666 µM)	Cmax [2]: 18000 ng/mL; Activity (Nocardia brasiliensis [3]): Active
CC(=O)NC[C@H]1CN(c2ccc(N3CCOCC3)c(F)c2)C(=O)O1 [LINEZOLID]		0.12 (≈ 0.356 µM)	Activity (Nocardia brasiliensis [4]): inactive; Cmax [5]: 50000 ng/mL
